Test results reported in patent US10189809B2, “SGC stimulators” (Ironwood Pharmaceuticals, Inc., priority 2010, dated 2019).
Read-outs that look alike come from different tables or passages of the source.

Tests used:
[1] = target: T1, soluble guanylate cyclase (sGC) (Homo sapiens (Human), UniProt Q02108+Q02153); assay: sGC-HEK-cGMP assay run in the absence of SNP (HEK WC assay); type: cell-based; details: for HEK WC Assay (fold increase at 30 μM in the absence of SNP) / HEK WC Assay (fold increase at 30 μM): compound at 30 μM; for HEK WC Assay (fold increase at 10 μM): compound at 10 μM; for HEK WC Assay (fold increase at 10 μM) / HEK WC Assay (fold increase at 30 μM): no SNP, increase in the sGC receptor activity
In short: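 HEK293 cells with endogenous sGC, preincubated 15 min at 37° C with 0.5 mM IBMX, then exposed to test compound 10 min at 37° C without SNP. Cells lysed in 0.1 M HCl; cGMP quantified by LC/MS against a standard curve. EC50 from concentration-response curves.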

[2] = target: T1, soluble guanylate cyclase (sGC); assay: sGC-HEK-cGMP assay run with SNP incubation (HEK WC assay); type: cell-based; details: for HEK WC Assay (fold increase at 30 μM in the presence of 10 μM SNP): compound at 30 μM; for EC50: in the presence of 10 uM SNP; for Emax at 10 µM: read-out: HEK WC Assay (% Emax at 10 uM/with 10 uM SNP); for Emax at 30 µM: read-out: HEK WC Assay (% Emax at 30 uM/with 10 uM SNP)
In short: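 HEK293 cells with endogenous sGC were pretreated with 0.5 mM IBMX for 15 min at 37 °C, then exposed to test compound plus sodium nitroprusside for 10 min at 37 °C.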

Thoracic aortic rings = assay: Alternative thoracic aortic rings assay (Example 19b; resting tension as 100% inhibition); parameters: species or system rat; details: Rattus norvegicus, Table 10B; for inhibition at 1 µM: read-out: Percent Relaxation at 1 μM; for inhibition at 3 µM: read-out: Percent Relaxation at 3 μM; for inhibition at 10 µM: read-out: Percent Relaxation at 10 μM; for EC50: read-out: Aortic Ring EC50
Experimental: Thoracic aortic rings were dissected from anesthetized (isoflurane) male Sprague-Dawley rats weighing 275-299 g. Tissues were immediately transferred to ice-cold Krebs-Henseleit solution, which had been aerated with 95% O2 and 5% CO2 for 30 minutes. Following removal of connective tissue, aortic sections were cut into 4 rings (˜2 mm each) and suspended on 2 L-shaped hooks, with one hook fixed at the bottom of the tissue bath (Schuler Organ Bath, Harvard Apparatus) and the other connected to a force transducer (F30 Force Transducer, Harvard Apparatus). Baths contained Krebs Henseleit solution (10 mL) heated to 37° C. and aerated with 95% O2 and 5% CO2. Rings were brought to an initial tension of 0.3-0.5 g and gradually raised to a resting tension of 1.0 g over 60 minutes. Rings were rinsed with Krebs Henseleit solution (heated to 37° C. and aerated with 95% O2 and 5% CO2) at 15 minute intervals until a stable baseline was obtained. Rings were considered to be stable after a resting tension of 1.0 g was maintained (for approximately 10 minutes) without need for adjustment. Rings were then contracted with 100 ng/mL phenylephrine by adding 100 uL of a 10 μg/mL phenylephrine stock solution. Tissues achieving a stable contraction were then treated in a cumulative, dose dependent manner with test compounds prepared in dimethylsulfoxide (DMSO). In some cases, tissues were rinsed three times over a 5 minute period with Krebs-Heinseleit's solution (heated to 37° C. and aerated with 95% O2 and 5% CO2), allowed to stabilize at baseline, and then used for characterization of other test articles or DMSO effects. All data were collected using the HSE-ACAD software provided by Harvard Apparatus. […] EC50 values were calculated from concentration-response curves generated with GraphPad Prism Software.

[3] = target: Human soluble guanylate cyclase enzyme (hsGC) (Homo sapiens (Human), UniProt Q02108+Q02153); assay: Purified human sGC enzyme activity assay; type: biochemical; details: for sGC Enzyme (specific activity at 10 μM) / sGC Enzyme (fold increase at 10 μM without SNP): 10 μM compound; for sGC Enzyme (specific activity at 30 μM) / sGC Enzyme (fold increase at 30 μM without SNP): 30 μM compound
Experimental: Human soluble guanylate cyclase enzyme (hsGC) obtained from Enzo Inc. (P/N: ALX-201-177) was used to evaluate the activity of test compounds. The assay reactions contained 0.1 M Tris (pH 8.0), 0.5 mg/mL BSA (pH 8.0), 2 mM DTT, 2 mM MgCl2, 300 μM GTP, 1 mM 3-isobutyl-1-methylxanthine (IBMX) and 5 ng human soluble guanylate cyclase enzyme. Test compounds in DMSO were then added (2 μL, 10 or 30 μM final concentration) and incubated (200 μL, 96-well plate format) at 37° C. for 30 minutes. The controls were carried out using 2 μL DMSO. After the 30 minute incubation, the reaction was stopped with the addition of 200 μL of cold methanol. The plate was then centrifuged at 3,200 rpm for 10 minutes at room temperature. Supernatants (200 μL) were collected and transferred to a new 96 well plate for analysis.
An 8 point cGMP (Sigma-Aldrich P/N: G6129) standard curve was prepared in assay buffer ranging from 0.156-20 μM. Samples for the cGMP standard curve were then diluted with an equal volume of methanol resulting in final cGMP concentrations of 0.078-10 μM.
The cGMP standard curve was generated using GraphPad Prism Software.
Calculations: Specific Activity was determined by the amount of cGMP formed (nmoles) per mg of sGC per min. Enzyme “fold-change” was calculated by dividing Specific Activity for test compounds by Specific Activity of DMSO controls.

[4] = read-out: HEK WC Assay (% Emax at 1 μM with 10 uM SNP)
[5] = read-out: HEK WC Assay (% Emax at 10 μM with 10 uM SNP)
[6] = read-out: HEK WC Assay (% Emax at 30 μM with 10 uM SNP)

T1 sequence (Q02153 whole entry): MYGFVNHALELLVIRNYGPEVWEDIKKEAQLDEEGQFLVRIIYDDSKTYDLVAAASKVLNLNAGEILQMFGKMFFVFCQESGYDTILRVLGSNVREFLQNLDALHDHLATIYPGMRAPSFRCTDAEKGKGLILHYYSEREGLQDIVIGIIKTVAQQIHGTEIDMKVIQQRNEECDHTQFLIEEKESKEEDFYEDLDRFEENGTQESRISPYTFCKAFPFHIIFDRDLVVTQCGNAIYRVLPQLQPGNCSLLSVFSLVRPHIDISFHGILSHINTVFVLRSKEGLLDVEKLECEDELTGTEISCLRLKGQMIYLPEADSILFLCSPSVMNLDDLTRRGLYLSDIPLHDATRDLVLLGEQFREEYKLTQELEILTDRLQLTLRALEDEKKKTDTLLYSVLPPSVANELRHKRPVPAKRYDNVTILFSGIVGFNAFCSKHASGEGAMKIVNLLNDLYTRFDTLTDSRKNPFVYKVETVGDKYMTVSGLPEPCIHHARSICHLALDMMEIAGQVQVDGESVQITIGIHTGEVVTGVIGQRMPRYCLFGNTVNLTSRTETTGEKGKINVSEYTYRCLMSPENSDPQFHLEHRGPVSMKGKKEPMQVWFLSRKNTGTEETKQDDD
T1 sequence (Q02108 whole entry): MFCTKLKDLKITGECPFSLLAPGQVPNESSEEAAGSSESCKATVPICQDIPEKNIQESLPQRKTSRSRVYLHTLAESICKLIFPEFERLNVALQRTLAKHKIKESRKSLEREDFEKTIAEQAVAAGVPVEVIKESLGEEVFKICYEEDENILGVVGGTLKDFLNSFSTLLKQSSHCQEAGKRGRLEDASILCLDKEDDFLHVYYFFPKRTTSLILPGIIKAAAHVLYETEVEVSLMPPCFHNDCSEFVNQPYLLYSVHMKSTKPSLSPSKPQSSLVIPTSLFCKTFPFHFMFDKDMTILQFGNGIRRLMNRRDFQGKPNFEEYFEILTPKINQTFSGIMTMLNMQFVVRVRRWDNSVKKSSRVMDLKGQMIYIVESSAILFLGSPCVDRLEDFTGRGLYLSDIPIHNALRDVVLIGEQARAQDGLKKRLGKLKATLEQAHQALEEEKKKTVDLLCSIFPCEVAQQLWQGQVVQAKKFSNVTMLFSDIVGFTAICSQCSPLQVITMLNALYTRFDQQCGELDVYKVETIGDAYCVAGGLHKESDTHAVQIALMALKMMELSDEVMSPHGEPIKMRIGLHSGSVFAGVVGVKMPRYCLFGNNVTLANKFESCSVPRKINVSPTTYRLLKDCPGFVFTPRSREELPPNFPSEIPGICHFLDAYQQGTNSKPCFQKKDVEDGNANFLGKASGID
Chain of Human soluble guanylate cyclase enzyme (hsGC) (Q02153 whole entry): as the sequence (Q02153 whole entry) above
Chain of Human soluble guanylate cyclase enzyme (hsGC) (Q02108 whole entry): as the sequence (Q02108 whole entry) above

Structure (SMILES) | HEK WC Assay (fold increase at 30 μM in the absence of SNP) [1] | HEK WC Assay (fold increase at 30 μM in the presence of 10 μM SNP) [2] | EC50 [2] [µM] | Emax [2, 4] [%] | Emax [2, 5] [%] | Emax [2, 6] [%] | inhibition at 1 µM (Thoracic aortic rings) [%] | inhibition at 3 µM (Thoracic aortic rings) [%] | inhibition at 10 µM (Thoracic aortic rings) [%] | EC50 (Thoracic aortic rings) [nM] | HEK WC Assay (fold increase at 10 μM) [1] | HEK WC Assay (fold increase at 30 μM) [1] | Emax at 10 µM [2] [%] | Emax at 30 µM [2] [%] | sGC Enzyme (specific activity at 10 μM) [3] | sGC Enzyme (fold increase at 10 μM without SNP) [3] | sGC Enzyme (specific activity at 30 μM) [3] | sGC Enzyme (fold increase at 30 μM without SNP) [3]
Nc1nc(-c2cc(-c3ccon3)n(Cc3ccccc3F)n2)ncc1NC(=O)c1ccccc1Cl [Compound I-185] | E (E = 10 to <20 fold increase) | E (E = 10 to <20 fold increase) | < 20 | 60 to 80 | 80 to 100 | 100 to 120 | 60 to 80 | 100 to 120 | 100 to 120 | < 2000 | – | – | – | – | – | – | – | –
O=S(=O)(c1ccccc1)c1cnc(-c2cc(-c3ccon3)n(Cc3ccccc3F)n2)nc1O [Compound I-217] | D (D = 5 to <10 fold increase) | F (F = 20 to <30 fold increase) | < 20 | 60 to 80 | 100 to 120 | – | 40 to 60 | 60 to 80 | 80 to 100 | < 2000 | – | – | – | – | – | – | – | –
CC(=O)Nc1cnc(-c2cc(-c3ncco3)n(Cc3ccccc3F)n2)nc1N [Compound I-151] | C (C = 2 to <5 fold increase) | D (D = 5 to <10 fold increase) | < 20 | – | 60 to 80 | 60 to 80 | 80 to 100 | 100 to 120 | 100 to 120 | < 2000 | – | – | – | – | – | – | – | –
COC(=O)Nc1cnc(-c2cc(-c3ccon3)n(Cc3ccccc3F)n2)nc1N [Compound I-142] | E (E = 10 to <20 fold increase) | F (F = 20 to <30 fold increase) | < 20 | – | 100 to 120 | 100 to 120 | 80 to 100 | 100 to 120 | – | < 2000 | – | – | – | – | – | – | – | –
Nc1nc(-c2cc(-c3ccon3)n(Cc3ccccc3F)n2)ncc1N1CCCC1=O [Compound I-169] | C (C = 2 to <5 fold increase) | D (D = 5 to <10 fold increase) | < 20 | 20 to 40 | 40 to 60 | 60 to 80 | 40 to 60 | 80 to 100 | – | < 2000 | – | – | – | – | – | – | – | –
COc1ccccc1C(=O)Nc1cnc(-c2cc(-c3ccon3)n(Cc3ccccc3F)n2)nc1N [Compound I-166] | D (D = 5 to <10 fold increase) | G (G = 30 to <40 fold increase) | < 20 | 60 to 80 | 80 to 100 | 100 to 120 | 40 to 60 | 80 to 100 | 100 to 120 | < 2000 | – | – | – | – | – | – | – | –
Nc1nc(-c2cc(-c3ccon3)n(Cc3ccccc3F)n2)ncc1NC(=O)OCCCl [Compound I-152] | E (E = 10 to <20 fold increase) | E (E = 10 to <20 fold increase) | < 20 | – | 60 to 80 | 40 to 60 | 60 to 80 | 80 to 100 | 100 to 120 | < 2000 | – | – | – | – | – | – | – | –
CC(C)(C)C(=O)Nc1cnc(-c2cc(-c3ccon3)n(Cc3ccccc3F)n2)nc1N [Compound I-277] | D (D = 5 to <10 fold increase) | E (E = 10 to <20 fold increase) | < 20 | 60 to 80 | 80 to 100 | 80 to 100 | 60 to 80 | 80 to 100 | 100 to 120 | < 2000 | – | – | – | – | – | – | – | –
Nc1ccnc(-c2cc(-c3ccccn3)nn2Cc2ccccc2F)n1 [Compound I-41] | – | – | – | – | – | – | – | – | – | – | A (A = no increase to <1 fold increase) | A (A = no increase to <1 fold increase) | 0 to 10 | 0 to 10 | B (B = 50 to <100) | A (A = no increase to <2 fold increase) | C (C = 100 to <200) | B (B = 2 to <5 fold increase)
Fc1ccccc1Cn1nc(-c2ccccn2)cc1-c1ccncc1 [Compound I-11] | – | – | – | – | – | – | – | – | – | – | A (A = no increase to <1 fold increase) | A (A = no increase to <1 fold increase) | 0 to 10 | 0 to 10 | – | A (A = no increase to <2 fold increase) | C (C = 100 to <200) | A (A = no increase to <2 fold increase)
Fc1ccccc1Cn1nc(-c2ncccn2)cc1-c1cnc2ccoc2c1 [Compound I-32] | – | – | – | – | – | – | – | – | – | – | A (A = no increase to <1 fold increase) | A (A = no increase to <1 fold increase) | 0 to 10 | 0 to 10 | C (C = 100 to <200) | A (A = no increase to <2 fold increase) | D (D = 200 to <500) | A (A = no increase to <2 fold increase)
